Test results as given in patent publication US10004701B2, “Methods and compositions for treating infection” (UNIVERSITY OF ROCHESTER, priority 2012, dated 2018).
Counter-ions that a name gives are not always drawn. Like-named read-outs stand apart in the source and are kept apart here.

How the values were obtained:
Assay in all cases: AK assay 384-well format, Prestwick library screening
[1] = tested on: K. pneumoniae; assay type: cell-based, Klebsiella pneumoniae; conditions: 50 μM final drug concentration; for fold induction at 50 µM: Klebsiella pneumoniae, 3 h
[2] = tested on: E. faecium; assay type: cell-based, Enterococcus faecium; conditions: 50 μM final drug concentration; for fold induction at 50 µM: Enterococcus faecium, 3 h
[3] = tested on: S. aureus strain USA300-0114; assay type: cell-based, Staphylococcus aureus; conditions: 50 μM final drug concentration; for fold induction at 50 µM: Staphylococcus aureus, USA300, 3 h
[4] = tested on: E. cloacae; assay type: cell-based, Enterobacter cloacae; conditions: 50 μM final drug concentration; for fold induction at 50 µM: Enterobacter cloacae, 3 h
[5] = tested on: P. aeruginosa; assay type: cell-based, Pseudomonas aeruginosa; conditions: 50 μM final drug concentration; for fold induction at 50 µM: Pseudomonas aeruginosa, 3 h
[6] = tested on: E. coli; assay type: cell-based, Escherichia coli; conditions: 50 μM final drug concentration; for fold induction at 50 µM: Escherichia coli, 3 h
[7] = tested on: A. baumannii strain 98-37-09; assay type: cell-based, Acinetobacter baumannii; conditions: 50 μM final drug concentration; for fold induction at 50 µM: Acinetobacter baumannii, 983709, 3 h
[8] = planktonic K. pneumoniae, 384-well, cutoff for positive-scoring molecules 3-fold increase, read-out: AK-based Prestwick Library Screening Results: K. pneumoniae (increase in extracellular AK activity)
[9] = planktonic E. faecium, 384-well, cutoff for positive-scoring molecules 3-fold increase, read-out: AK-based Prestwick Library Screening Results: E. faecium (increase in extracellular AK activity)
[10] = planktonic S. aureus, 384-well, cutoff for positive-scoring molecules 3-fold increase, read-out: AK-based Prestwick Library Screening Results: S. aureus (increase in extracellular AK activity)
[11] = planktonic E. cloacae, 384-well, cutoff for positive-scoring molecules 3-fold increase, read-out: AK-based Prestwick Library Screening Results: E. cloacae (increase in extracellular AK activity)
[12] = planktonic P. aeruginosa, 384-well, cutoff for positive-scoring molecules 3-fold increase, read-out: AK-based Prestwick Library Screening Results: P. aeruginosa (increase in extracellular AK activity)
[13] = planktonic E. coli, 384-well, cutoff for positive-scoring molecules 3-fold increase, read-out: AK-based Prestwick Library Screening Results: E. coli (increase in extracellular AK activity)
[14] = planktonic A. baumannii, 384-well, cutoff for positive-scoring molecules 3-fold increase, read-out: AK-based Prestwick Library Screening Results: A. baumannii (increase in extracellular AK activity)
[15] = planktonic K. pneumoniae, positive cutoff 3-fold increase, read-out: AK-based Prestwick library screening result, K. pneumoniae (fold increase in extracellular AK activity)
[16] = planktonic E. faecium, positive cutoff 3-fold increase, read-out: AK-based Prestwick library screening result, E. faecium (fold increase in extracellular AK activity)
[17] = planktonic S. aureus, positive cutoff 3-fold increase, read-out: AK-based Prestwick library screening result, S. aureus (fold increase in extracellular AK activity)
[18] = planktonic E. cloacae, positive cutoff 3-fold increase, read-out: AK-based Prestwick library screening result, E. cloacae (fold increase in extracellular AK activity)
[19] = planktonic P. aeruginosa, positive cutoff 3-fold increase, read-out: AK-based Prestwick library screening result, P. aeruginosa (fold increase in extracellular AK activity)
[20] = planktonic E. coli, positive cutoff 3-fold increase, read-out: AK-based Prestwick library screening result, E. coli (fold increase in extracellular AK activity)
[21] = planktonic A. baumannii, positive cutoff 3-fold increase, read-out: AK-based Prestwick library screening result, A. baumannii (fold increase in extracellular AK activity)
[22] = 384-well format, cutoff for positive-scoring molecules 3-fold increase, read-out: AK-based Prestwick Library Screening Results, K. pneumoniae (increase in extracellular AK activity)
[23] = 384-well format, cutoff for positive-scoring molecules 3-fold increase, read-out: AK-based Prestwick Library Screening Results, E. faecium (increase in extracellular AK activity)
[24] = 384-well format, cutoff for positive-scoring molecules 3-fold increase, read-out: AK-based Prestwick Library Screening Results, S. aureus (increase in extracellular AK activity)
[25] = 384-well format, cutoff for positive-scoring molecules 3-fold increase, read-out: AK-based Prestwick Library Screening Results, E. cloacae (increase in extracellular AK activity)
[26] = 384-well format, cutoff for positive-scoring molecules 3-fold increase, read-out: AK-based Prestwick Library Screening Results, P. aeruginosa (increase in extracellular AK activity)
[27] = 384-well format, cutoff for positive-scoring molecules 3-fold increase, read-out: AK-based Prestwick Library Screening Results, E. coli (increase in extracellular AK activity)
[28] = 384-well format, cutoff for positive-scoring molecules 3-fold increase, read-out: AK-based Prestwick Library Screening Results, A. baumannii (increase in extracellular AK activity)

Cc1ccc(C(=O)c2ccc(CC(=O)O)n2C)cc1 [Tolmetin sodium salt dihydrate]
fold induction at 50 µM ([1]; cutoff for positive-scoring molecules 3-fold increase, read-out: AK-based Prestwick Library Screening Results, K. pneumoniae (fold increase in extracellular AK activity)): 0.6
fold induction at 50 µM ([2]; cutoff for positive-scoring molecules 3-fold increase, read-out: AK-based Prestwick Library Screening Results, E. faecium (fold increase in extracellular AK activity)): 0.8
fold induction at 50 µM ([3]; cutoff for positive-scoring molecules 3-fold increase, read-out: AK-based Prestwick Library Screening Results, S. aureus (fold increase in extracellular AK activity)): 0.9
fold induction at 50 µM ([4]; cutoff for positive-scoring molecules 3-fold increase, read-out: AK-based Prestwick Library Screening Results, E. cloacae (fold increase in extracellular AK activity)): 2
fold induction at 50 µM ([5]; cutoff for positive-scoring molecules 3-fold increase, read-out: AK-based Prestwick Library Screening Results, P. aeruginosa (fold increase in extracellular AK activity)): 1
fold induction at 50 µM ([6]; cutoff for positive-scoring molecules 3-fold increase, read-out: AK-based Prestwick Library Screening Results, E. coli (fold increase in extracellular AK activity)): 0.9
fold induction at 50 µM ([7]; cutoff for positive-scoring molecules 3-fold increase, read-out: AK-based Prestwick Library Screening Results, A. baumannii (fold increase in extracellular AK activity)): 0.8

Cc1cccc(N(C)C(=S)Oc2ccc3ccccc3c2)c1 [Tolnaftate]
fold induction at 50 µM [1, 8]: 0.9
fold induction at 50 µM [2, 9]: 1
fold induction at 50 µM [3, 10]: 1.3
fold induction at 50 µM [4, 11]: 1.2
fold induction at 50 µM [5, 12]: 1
fold induction at 50 µM [6, 13]: 1.1
fold induction at 50 µM [7, 14]: 1.5

C[C@H]1CC[C@]2(NC1)O[C@H]1C[C@H]3[C@@H]4CC[C@H]5C[C@@H](O)CC[C@]5(C)[C@H]4CC[C@]3(C)[C@H]1[C@@H]2C [Tomatidine]
fold induction at 50 µM ([1]; planktonic K. pneumoniae, […], read-out: AK-based Prestwick Library Screening Results, K. pneumoniae (increase in extracellular AK activity)): 0.6
fold induction at 50 µM ([2]; planktonic E. faecium, […], read-out: AK-based Prestwick Library Screening Results, E. faecium (increase in extracellular AK activity)): 1.2
fold induction at 50 µM ([3]; planktonic S. aureus, […], read-out: AK-based Prestwick Library Screening Results, S. aureus (increase in extracellular AK activity)): 0.5
fold induction at 50 µM ([4]; planktonic E. cloacae, […], read-out: AK-based Prestwick Library Screening Results, E. cloacae (increase in extracellular AK activity)): 1
fold induction at 50 µM ([5]; planktonic P. aeruginosa, […], read-out: AK-based Prestwick Library Screening Results, P. aeruginosa (increase in extracellular AK activity)): 0.7
fold induction at 50 µM ([6]; planktonic E. coli, […], read-out: AK-based Prestwick Library Screening Results, E. coli (increase in extracellular AK activity)): 0.7
fold induction at 50 µM ([7]; planktonic A. baumannii, […], read-out: AK-based Prestwick Library Screening Results, A. baumannii (increase in extracellular AK activity)): 0.7

C[C@H]1CC[C@]2(NC1)O[C@H]1C[C@H]3[C@@H]4CC[C@H]5C[C@@H](O[C@@H]6O[C@H](CO)[C@H](O[C@@H]7O[C@H](CO)[C@@H](O)[C@H](O[C@@H]8OC[C@@H](O)[C@H](O)[C@H]8O)[C@H]7O[C@@H]7O[C@H](CO)[C@@H](O)[C@H](O)[C@H]7O)[C@H](O)[C@H]6O)CC[C@]5(C)[C@H]4CC[C@]3(C)[C@H]1[C@@H]2C [Tomatine]
fold induction at 50 µM ([1]; 384-well format, […], read-out: AK-based Prestwick Library Screening Results, K. pneumoniae (increase in extracellular AK activity)): 0.7
fold induction at 50 µM ([2]; 384-well format, […], read-out: AK-based Prestwick Library Screening Results, E. faecium (increase in extracellular AK activity)): 1
fold induction at 50 µM ([3]; 384-well format, […], read-out: AK-based Prestwick Library Screening Results, S. aureus (increase in extracellular AK activity)): 0.8
fold induction at 50 µM ([4]; 384-well format, […], read-out: AK-based Prestwick Library Screening Results, E. cloacae (increase in extracellular AK activity)): 1.1
fold induction at 50 µM ([5]; 384-well format, […], read-out: AK-based Prestwick Library Screening Results, P. aeruginosa (increase in extracellular AK activity)): 0.8
fold induction at 50 µM ([6]; 384-well format, […], read-out: AK-based Prestwick Library Screening Results, E. coli (increase in extracellular AK activity)): 0.9
fold induction at 50 µM ([7]; 384-well format, […], read-out: AK-based Prestwick Library Screening Results, A. baumannii (increase in extracellular AK activity)): 1

Cc1cccc(Nc2ccncc2S(=O)(=O)NC(=O)NC(C)C)c1 [Torsemide]
fold induction at 50 µM [1, 15]: 1.3
fold induction at 50 µM [2, 16]: 1
fold induction at 50 µM [3, 17]: 1.5
fold induction at 50 µM [4, 18]: 1.4
fold induction at 50 µM [5, 19]: 1.1
fold induction at 50 µM [6, 20]: 1.1
fold induction at 50 µM [7, 21]: 1.6

CCCCNc1c(C(=O)OCC)c(C)nc2c1cnn2CC [Tracazolate hydrochloride]
fold induction at 50 µM [1, 15]: 0.6
fold induction at 50 µM [2, 16]: 1.1
fold induction at 50 µM [3, 17]: 0.5
fold induction at 50 µM [4, 18]: 0.7
fold induction at 50 µM [5, 19]: 0.6
fold induction at 50 µM [6, 20]: 0.5
fold induction at 50 µM [7, 21]: 0.8

NC[C@H]1CC[C@H](C(=O)O)CC1 [Tranexamic acid]
fold induction at 50 µM [1, 22]: 0.7
fold induction at 50 µM [2, 23]: 1.1
fold induction at 50 µM [3, 24]: 0.7
fold induction at 50 µM [4, 25]: 0.9
fold induction at 50 µM [5, 26]: 0.9
fold induction at 50 µM [6, 27]: 0.8
fold induction at 50 µM [7, 28]: 0.8

N[C@@H]1C[C@H]1c1ccccc1 [Tranylcypromine hydrochloride]
fold induction at 50 µM [1, 22]: 0.6
fold induction at 50 µM [2, 23]: 1
fold induction at 50 µM [3, 24]: 0.8
fold induction at 50 µM [4, 25]: 0.9
fold induction at 50 µM [5, 26]: 0.8
fold induction at 50 µM [6, 27]: 0.8
fold induction at 50 µM [7, 28]: 0.9

O=c1n(CCCN2CCN(c3cccc(Cl)c3)CC2)nc2ccccn12 [Trazodone hydrochloride]
fold induction at 50 µM [1, 8]: 1
fold induction at 50 µM [2, 9]: 1
fold induction at 50 µM [3, 10]: 0.9
fold induction at 50 µM [4, 11]: 1.3
fold induction at 50 µM [5, 12]: 1.2
fold induction at 50 µM [6, 13]: 0.9
fold induction at 50 µM [7, 14]: 1

C(#CCN1CCCC1)CN1CCCC1.Cl.Cl [Tremorine dihydrochloride]
AK-based Prestwick Library Screening Results, K. pneumoniae (increase in extracellular AK activity) ([1]; planktonic K. pneumoniae, […]): 0.6
AK-based Prestwick Library Screening Results, E. faecium (increase in extracellular AK activity) ([2]; planktonic E. faecium, […]): 1.0
AK-based Prestwick Library Screening Results, S. aureus (increase in extracellular AK activity) ([3]; planktonic S. aureus, […]): 0.5
AK-based Prestwick Library Screening Results, E. cloacae (increase in extracellular AK activity) ([4]; planktonic E. cloacae, […]): 0.7
AK-based Prestwick Library Screening Results, P. aeruginosa (increase in extracellular AK activity) ([5]; planktonic P. aeruginosa, […]): 0.6
AK-based Prestwick Library Screening Results, E. coli (increase in extracellular AK activity) ([6]; planktonic E. coli, […]): 0.7
AK-based Prestwick Library Screening Results, A. baumannii (increase in extracellular AK activity) ([7]; planktonic A. baumannii, […]): 0.7
